Results from patent publication US6506393B2, “Methods of treating protozoal diseases” (Zentaris AG, priority 1991, dated 2003).
In brackets after ≈: the same amount, converted by molar mass. Entries after “also recorded” stand apart in the source; their conditions may differ.

What was measured:
L. donovani [1] = assay: Effect of leishmaniasis drugs on the number of pathogens in liver and spleen of rats infected with L. donovani (Examples 39, 40); format: in vivo; conditions: for Pathogens per spleen (in millions): 3 week period of therapy; for Relative effectiveness (pathogens per spleen after Pentostam therapy divided by pathogens/spleen after addition of test substance): procedure as in example 39 (orally 5 × 20 mg/kg/week for 3 weeks)
L. donovani [2] = assay: as above; format: in vivo; conditions: for Relative effectiveness (pathogens per liver after Pentostam therapy divided by pathogens/liver after addition of test substance) / Pathogens per liver (in millions): orally 5 × 20 mg/kg/week for 3 weeks; for Pathogens per liver (in millions): rats infected with L. donovani, microscopic analysis
Experimental: Effect of various leishmaniasis drugs on the presence of pathogens in the liver of experimental animals (rats) infected with L. donovani.
The compounds according to the present invention and Et18OCH3 were administered orally while Pentostam was administered intravenously.
The number of pathogens per liver was determined by microscopic analysis.
The experimental procedure was as described in example 39.

[3] = tested on: L. donovani strain MHOM/IN/54LRC-L.51 promastigotes; assay: Effect on pathogens in vitro: promastigote culture, 96 hours, counting chamber (Example 41); format: cell-based; conditions: 96 hours of incubation, 26° C., mean and SD of 3 experiments; for IC50: Leishmania donovani
Experimental: Several compounds of the invention were tested against L. donovani strain MHOM/IN/54LRC-L.51, isolated from a patient with visceral leishmaniasis. Before use for experiments, the strain was passed through Balb/c mice by intravenous injection.
Promastigotes were cultured in vitro in a mixed medium consisting of one part of HOSMEM and one part of RPMI-1640 (Gibco 041-02400) supplemented with 10% heat-inactivated fetal bovine serum (Gibco 011-06290) at 26° C. Cultures were maintained by seeding 5×10^6 promastigotes from 4-day-old cultures into 10 ml fresh medium. The promastigotes were cultured in 24-well-multiplates. After 96 hours of incubation in control or drug-containing media, the number of promastigotes was determined in a Neubauer counting chamber. The 50% inhibitory concentration was calculated graphically. The data is representative of the mean and SD values of 3 different experiments.

[4] = tested on: three strains of Leishmania (L. donovani MHOM/IN/54LRC-L.51; L. donovani MHOM/IN/80/DDS and L. infantum MHOM/ES/86/STI-172); assay: Effect on pathogens in vivo: parasite burden in liver and spleen of infected Balb/c mice (Example 42)
Experimental: Several compounds of the invention were tested against three strains of Leishmania (L. donovani MHOM/IN/54LRC-L.51; L. donovani MHOM/IN/80/DDS and L. infantum MHOM/ES/86/STI-172). All strains were isolated from patients with visceral leishmaniasis. Before use for experiments, the strains were passed through Balb/c mice by intravenous injection.
Balb/c mice were infected by intravenous injection of a mixture of 10^7 promastigotes from stationary growth phase and 10^7 amastigotes which were isolated from the liver or spleen of leishmania-infected mice. Oral treatment with the compounds of the invention was initiated on day 7, at which time the mean parasitic burden was 100 to 200×10^6 amastigotes per liver, 1 to 2×10^6 per spleen and 3 to 6 amastigotes per microscopic field of 100 hematopoietic cells in bone marrow.
Parasite burden in spleen and liver were determined in GIEMSA's stained impression smears from cut sections by counting the number of amastigotes per 1000 spleen or liver nuclei. The total number of amastigotes per organ was calculated according to Stauber et al. (J. Protozool. 5:269-273 (1958)). Parasite suppression (parasite burden of drug treated mice to parasite burden of untreated mice) and parasite killing (parasite burden at the end of treatment to parasite burden at the start of treatment) were calculated according to Baumann et al. (Antimicrob. Agents Chemother. 35:1403-1407 (1991)) for all strains on day 14, for the strain LRC-L.51 in addition on days 21, 25 and 35 post-infectionem. The parasite burden in the bone marrow was examined on days 7 and 35 post-infectionem (strain LRC-L.51).
Table V summarizes the in vivo treatment results of several compounds of the invention in the liver and the spleen of treated mice. […] However, it is clear from the Table that the compounds of the invention produced much better results.

Leishmania = assay: Four-week treatment period of Leishmania-infected mice (Example 43); format: in vivo
From the text: In a further experiment, hexadecylphosphocholine was investigated in more detail.

[5] = in vivo, sc; cited from earlier work
[6] = procedure as in example 39 (orally 5 × 20 mg/kg/week)

IC50 Value [3] | IC50 [3] | Molecule | Pathogens per spleen (in millions) (L. donovani [1]; [6]) | Relative effectiveness (pathogens per spleen after Pentostam therapy divided by pathogens/spleen after addition of test substance) (L. donovani [1]) | Pathogens per liver (in millions) (L. donovani [2]) | Parasites (× 10^6) Liver ([4]; oral treatment, dose 20 mg/kg) | Parasites (× 10^6) Spleen ([4]; oral treatment, dose 20 mg/kg) | further results
2.80 ± 0.50 µg/mL (≈ 6.06 µM) | – | CCCCCCCC/C=C\CCCCCCCCOP(=O)([O-])OCC[N+](C)(CC)CC [Example 20, Oleylphospho-(N.N-diethyl-N-methyl)-ethanolamine] | – | – | – | 55 × 10^6 | 3.8 × 10^6 | –
0.66 ± 0.24 µg/mL (≈ 1.39 µM) | – | CCCCCCCC/C=C\CCCCCCCCOP(=O)([O-])OCC[N+](CC)(CC)CC [cis-9-octadecenylphospho-(N,N-diethyl,N-ethylamino)ethanol] | – | – | – | 6 × 10^6 | 0.03 × 10^6 | –
3.59 ± 0.19 µg/mL (≈ 7.78 µM) | – | CCCCCCCCCCCCCCCCCCOP(=O)([O-])OCC[N+]1(C)CCCC1 [Example 19, Octadecylphospho-(N-methyl)-pyrrolidino-ethyl ester] | – | – | – | 22 × 10^6 | 0.035 × 10^6 | –
– | 2.07 ± 0.23 µg/mL (≈ 5.08 µM) | CCCCCCCCCCCCCCCCOP(=O)([O-])OCC[N+](C)(C)C [Example 1, Hexadecylphosphocholine] | 0.01 millions | – | 0.1 millions | 0.07 × 10^6 | 0.008 × 10^6 | Toxicity for the experimental animals, in particular for macrophages [5]: highly toxic; Parasites microscopically detectable (L. donovani [1]; several additional experiments (Example 40, spleen), single oral dose of 200 mg): no longer microscopically detectable; Spleen Weight (Leishmania; Leishmania-infected mice, 10 mg (oral)): 150 mg; Reduction of parasites in the spleen (Leishmania; spleen, oral treatment with 20 mg/kg): more than three log rank reduction of parasites; Parasites microscopically detectable in the liver and in the spleen (L. donovani [2]; additional experiments, single oral dose of 200 mg): no longer microscopically detectable

Second part, the molecule before the results:

Molecule | IC50 Value [3] | IC50 [3] | Pathogens per spleen (in millions) (L. donovani [1]; [6]) | Relative effectiveness (pathogens per spleen after Pentostam therapy divided by pathogens/spleen after addition of test substance) (L. donovani [1]) | Pathogens per liver (in millions) (L. donovani [2]) | Parasites (× 10^6) Liver ([4]; oral treatment, dose 20 mg/kg) | Parasites (× 10^6) Spleen ([4]; oral treatment, dose 20 mg/kg) | further results
CCCCCCCC/C=C\CCCCCCCCOP(=O)([O-])OCC[N+](C)(C)CC [Example 7, Oleylphospho-(N.N-dimethyl-N-ethyl)ethanolamine] | – | – | 0.03 millions | 210.0 | 4.7 millions | – | – | Relative effectiveness (pathogens per liver after Pentostam therapy divided by pathogens/liver after addition of test substance) (L. donovani [2]; 20 mg/kg): 0.7; Relative effectiveness (pathogens per liver after Pentostam therapy divided by pathogens/liver after addition of test substance) (L. donovani [2]; listed as olely-phospho-(N.N-dimethyl-N-ethyl)ethanolamine, 20 mg/kg): comparable effect to Pentostam
octadecylphosphoethanol-(N-methyl)piperidine | 4.90 ± 0.50 µg/mL | – | – | – | – | 65 × 10^6 | 0.35 × 10^6 | –
CCCCCCCCCCCCCCCCCCOP(=O)([O-])OCC[N+](C)(C)C [Example 2, Octadecylphosphocholine] | – | 0.8 ± 0.2 µg/mL (≈ 1.84 µM) | 0.01 millions | 630.0 | 0.1 millions | 0.07 × 10^6 | 0.015 × 10^6 | Relative effectiveness (pathogens per liver after Pentostam therapy divided by pathogens/liver after addition of test substance) (L. donovani [2]): 32.0
O.O.O.O.O.O.O.O.O.O=C([O-])[C@@H]1[O][Sb]2([O-])([O][Sb]34([OH])[O][C@H]([C@H](O)CO)[C@H]([O]3)[C@H](C(=O)[O-])[O]4)[O][C@H]([C@H](O)CO)[C@@H]1[O]2.[Na+].[Na+].[Na+] [Pentostam, sodium stibogluconate, reference compound] | – | – | – | – | – | – | – | Pathogens per spleen (in millions) (L. donovani [1]; procedure as in example 39 (Pentostam iv. 5 × 120 mg/kg/week), 120 mg/kg): weak effect; also recorded: extremely low effectiveness; Suppression of parasite growth in the spleen compared to control mice (Leishmania; spleen, Pentostam): only a moderate suppression of parasite growth; Parasites (× 10^6) Liver ([4]; Pentostam, dose 120 mg/kg): significantly reduced the parasite burden; Parasites (× 10^6) Spleen ([4]; Pentostam, dose 120 mg/kg): significantly reduced the parasite burden
CCCCCCCC/C=C/CCCCCCCCOP(=O)([O-])OCC[N+](C)(C)C [Example 4, Elaidylphosphocholine] | – | 0.41 ± 0.14 µg/mL (≈ 0.946 µM) | – | – | – | 28 × 10^6 | 0.02 × 10^6 | –
CCCCCCCCCCCCCCCCCCOCC(COP(=O)([O-])OCC[N+](C)(C)C)OC (racemic) [Et18OCH3, 1-octadecyl-2-methyl-rac-glycero-3-phosphocholine, reference compound] | – | – | 6.5 millions | 0.9 | 424.7 millions | – | – | Relative effectiveness (pathogens per liver after Pentostam therapy divided by pathogens/liver after addition of test substance) (L. donovani [2]): 0.007
